Data on ten compounds can be found in US8697837B2, “Substrate for Rpn 11 enzymatic activity” (Onyx Therapeutics, Inc., priority 2005, dated 2014).

For test [1], the target named is T1, Rpn11 (26S proteasome) (Homo sapiens, UniProt O00487).
T1 construct: To date, a recombinant form of Rpn11 has not been generated
Nature of the test: SDS-PAGE assay of Ub4-peptide substrate proteolysis by 26S proteasome. The settings on record: for inhibition of proteolysis of the substrate Ub4-peptide(29) and Ub4-peptide-C14(29) by the 26S proteasome: FIG. 1, 60 nM 26S proteasome, 2 h 37 °C, 5 mM ATPγS, 1 mM OPA, 5 μM Ub-aldehyde, SDS-PAGE. The test is classed as biochemical. The method, then:
Each peptide substrate further comprises an N-terminal ubiquitin moiety that has 4 Ub repeats (Ub4). […] 2 μg of Ub4-peptide(29) or Ub4-peptide-C14(29) were incubated with 60 nM 26S proteasome in buffer B [50 mM Tris pH 8.0; 10 mM MgCl2; 1 mM DTT; 1 mM ATP] and where indicated 5 mM ATPγS, 1 mM O-phenanthroline (OPA) and 5 μM ubiquitin aldehyde (Ub-aldehyde) in a volume of 20 μl for 2 hours at 37° C. Reactions were stopped by adding 7.5 μl loading dye and boiled at 100° C. for 5 minutes. Reactions were then loaded on an SDS-PAGE gel, reaction products were separated by electrophoresis and bands were visualized with brilliant blue.
Each peptide substrate further comprises an N-terminal ubiquitin moiety that has 4 Ub repeats (Ub4).

Test [2] concerns the target T2, chymotryptic-like activity of the 20S proteasome (Homo sapiens, UniProt P20618+P28074).
T2 construct: 26S proteasome purified from humans and purchased from BioMol; purchased BioMol
Nature of the test: Example 2 screen: liberation of AMC from LLVY-AMC. The settings on record: substrate LLVY-AMC; method of Example 2. The test is classed as biochemical. As to the method:
(§1) 4) 26S proteasome purified from humans and purchased from BioMol;
(§2) 5 μl of compound [30 μM compound in Buffer A+1% DMSO], 5 μl of substrate [30 nM Ub4-pep-C14(29)-Oregon Green and 15 μM LLVY-AMC in Buffer A] and 5 μl enzyme [1.5 nM 26S proteasomes] were mixed in a 384 well plates and incubated at 28° C. for 75 minutes. Reactions were stopped with the addition of […] 20S inhibitor (PR-171) and 4 mM EDTA. Processing of the 20S substrate LLVY-AMC to liberate AMC was determined by measuring the AMC fluorescence [excitation at 340 nm; emission at 465 nm]. Processing of the 19S substrate Ub4-pep-C14(29)-Oregon Green to liberate pep-C14(29)-Oregon Green was determined by measuring the fluorescence polarization of Oregon Green [excitation at 485 nm; emission at 535 nm].
Modulators of the 20S proteasome activity affect liberation of AMC from LLVY-AMC (second non-ubiquitinated substrate) and affect the chymotryptic-like activity of the 20S proteasome.

In another test the test system is 19S proteasome. Put plainly: Example 2 screen: liberation of pep-C14(29)-Oregon Green from Ub4-pep-C14(29)-Oregon Green (fluorescence polarization). The test is classed as biochemical, human. The settings on record: method of Example 2. As to the method:
as §1, §2
Modulators of the 19S proteasome activity affect liberation of pep-C14(29)-Oregon Green from Ub4-pep-C14(29)-Oregon Green (first ubiquitinated substrate).

Test [3] has as its target ubiquitin or polyubiquitin chains (Homo sapiens, UniProt P0CG48). The settings on record: cited from earlier work.
Another test relates to Ub4-pep-C14(29). Put plainly: Intrinsic fluorescence of ubistatin A on incubation with Ub4-pep-C14(29). The test is classed as binding. The settings on record: 2.5 μM ubistatin A with 2.5 μM Ub4-pep-C14(29); excitation 350 nm, emission 450 nm. From the text:
A test agent that binds ubiquitin can affect the binding of ubistatin A (C92) to Ub4-pep-C14(29). This can be determined by measuring the intrinsic fluorescence of ubistatin A (C92) [excitation at 350 nm; emission at 450 nm] with Ub4-pep-C14(29) in the presence or absence of a test agent, which is a competition assay between ubistatin A and the test agent for binding to the ubiquitin.

Test [4] has as its target T1, Rpn11 (26S proteasome). Nature of the test: High throughput fluorescence polarization assay of Ub4-peptide(29)-fluorescein proteolysis by 26S proteasome. The test is classed as biochemical. As to conditions: FIG. 5A/5B; 100 nM substrate, 10 nM 26S proteasome, 28 °C, various inhibitor concentrations. The method, then:
Various concentrations (as indicated) of Ub4-peptide(29) coupled to Fluorescein-5-maleimide was incubated with 10 nM 26S proteasome in 50 mM Tris pH 8.0; 10 mM MgCl2; 1 mM DTT; 1 mM ATP at 28° C., and the liberation of peptide(29)-fluorescein was measured by fluorescence polarization (excitation at 485 nm; emission at 510 nm).
FIG. 5A illustrates a high throughput (HTP) FP assay that detects O-phenanthroline inhibition of Rpn11 activity. […] 100 nM Ub4-peptide coupled to fluorescein-5-maleimide was incubated with 10 nM 26S proteasome in 50 mM Tris pH 8.0; 10 mM MgCl2; 1 mM DTT; 1 mM ATP at 28° C. and the liberation of peptide was measured by fluorescence polarization (excitation at 485 nm; emission at 510 nm) in the presence of various concentrations of o-phenanthroline (as indicated).
FIG. 5B illustrates that Rpn11 enzymatic activity is unaffected by the presence of a 20S proteasome inhibitor in the HTP FP assay using a peptide substrate of the application. […] 100 nM Ub4-peptide coupled to fluorescein-5-maleimide was incubated with 10 nM 26S proteasome in 50 mM Tris pH 8.0; 10 mM MgCl2; 1 mM DTT; 1 mM ATP at 28° C. and the liberation of peptide was measured by fluorescence polarization (excitation at 485 nm; emission at 510 nm) in the presence of various concentrations of 20S proteasome inhibitor (as indicated).
Background: In fluorescence polarisation assays a small probe gives low polarisation when free and higher when bound to something large.

For a further test, the target named is Rpn11 (Saccharomyces cerevisiae, UniProt P43588). The settings on record: purified 26S proteasome complex; cited from earlier work.
Sequence of Rpn11 (P43588 whole entry): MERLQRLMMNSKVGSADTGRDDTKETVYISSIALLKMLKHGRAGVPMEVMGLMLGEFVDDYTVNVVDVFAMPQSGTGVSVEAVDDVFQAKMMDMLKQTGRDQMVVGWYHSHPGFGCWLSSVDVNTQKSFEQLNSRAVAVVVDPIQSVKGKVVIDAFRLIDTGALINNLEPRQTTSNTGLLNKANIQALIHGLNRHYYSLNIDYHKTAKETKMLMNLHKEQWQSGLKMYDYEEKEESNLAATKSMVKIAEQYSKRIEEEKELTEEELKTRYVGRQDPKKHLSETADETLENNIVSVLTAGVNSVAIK
Setting [5] is: FIG. 2, 60 nM 26S proteasome from source A.
[6] abbreviates: FIG. 2, 60 nM 26S proteasome from source B.

Where no end group is shown, it is not given here. Ub4 = N-terminal tetraubiquitin moiety

In the case of `Nc1ncnc2c1ncn2[C@@H]1O[C@H](COP(=O)(O)OP(=O)(O)OP(O)(O)=S)[C@@H](O)[C@H]1O` [ATPγS], the “inhibition of proteolysis of the substrate Ub4-peptide(29) and Ub4-peptide-C14(29) by the 26S proteasome” value (“inhibition … by the 26S proteasome” below) on Rpn11 (26S proteasome) [1] is recorded as “inhibited”. Also, the “inhibition of proteolysis of the substrate Ub4-peptide-C14(14)” value against Rpn11 (26S proteasome) [1] (setting [5]) was “inhibited”; against Rpn11 (26S proteasome) [1] (setting [6]), “not”.

For `COc1cccc(OC)c1C(=O)N1CCC(c2nc(-c3ccc(Br)cc3)no2)CC1` [Compound 1], the “effect on the chymotryptic-like activity of the 20S proteasome” value (from here on “effect on the chymotryptic-like activity”) in test [2] is “affect”.

As to `COc1cccc(OC)c1C(=O)N1CCC(c2nc(-c3ccc(C)cc3)no2)CC1` [Compound 2], in test [2], the “effect on the chymotryptic-like activity” value is reported as “affect”.

As to `CC(C)c1cc(OC(=O)c2cc(C(F)(F)F)cc(C(F)(F)F)c2)n(-c2ccc([N+](=O)[O-])cc2)n1` [Compound 3], the “effect on the chymotryptic-like activity” value in test [2] is listed as “affect”.

Take `O=C(c1ccc(CSc2ccc(-c3ccc(-c4ccccc4)cc3)nn2)o1)N1CCCC1` [Compound 4]: in the test on 19S proteasome, the “processing of the substrate Ub4-pep-C14(29)-Oregon Green by the 19S proteasome” value is reported as “prevents”.

For the compound `O=C(Nc1ccc(/C=C/c2ccc(NC(=O)c3cc(S(=O)(=O)O)c4cccnc4c3O)cc2S(=O)(=O)O)c(S(=O)(=O)O)c1)c1cc(S(=O)(=O)O)c2cccnc2c1O` [Ubistatin A], the “intrinsic fluorescence detected from Compound 92 on binding to a protein substrate” value in test [3] is recorded as “increases”. The “intrinsic fluorescence of ubistatin A (C92)” value in the test with Ub4-pep-C14(29) is given as “increases several fold”.

Regarding `c1cnc2c(c1)ccc1cccnc12` [o-phenanthroline, 1,10-phenanthroline], the “inhibition … by the 26S proteasome” value on Rpn11 (26S proteasome) [1] is listed as “inhibited”. Besides, the “inhibition of proteolysis of the substrate Ub4-peptide-C14(14)” value against Rpn11 (26S proteasome) [1] (setting [5]) is recorded as “inhibited”; against Rpn11 (26S proteasome) [1] (setting [6]) it was “not”. For the same compound, the “effect on kinetics of Ub4-peptide(29)-fluorescein proteolysis by the 26S proteasome” value on Rpn11 (26S proteasome) [4] is recorded as “affects”.

Take “Ub4-peptide-C14(14): peptide of SEQ ID NO:15 with S14 changed to C14 and an N-terminal Ub4 moiety; Rpn11 substrate (Ub4-MQIFVKTLRANSSC)”: the “effect of changing S14 to C14 on substrate's ability to be recognized and cleaved by Rpn11” value with Rpn11 (26S proteasome) [1] (FIG. 2, SEQ ID NO:15, N-terminal Ub4) is reported as “does not alter”.

In the case of ubiquitin aldehyde, on Rpn11 (26S proteasome) [1], the “inhibition … by the 26S proteasome” value was “not”. The “sensitivity of the deubiquitinating activity associated with Rpn11” value at Rpn11 is “insensitivity”.

As to ubiquitin vinylsulphone, on Rpn11, the “sensitivity of the deubiquitinating activity associated with Rpn11” value is “insensitivity”.
